Experimental data from paper PMC6916333, “A lysin motif effector subverts chitin‐triggered immunity to facilitate arbuscular mycorrhizal symbiosis” (The New Phytologist, 2019).
Read-outs that look alike come from different tables or passages of the source.

Molecular target: T1, RiSLM (Rhizophagus irregularis, UniProt U9TZV5)
T1 construct: gene GLOIN_2v1561425; without signal peptide; single LysM domain; expressed in E. coli ORIGAMI from pET-SUMO, SUMO tag removed by ULP-1; c; 7 kDa (faint 14 and 21 kDa bands, possible oligomers); NT.115 RED dye label
Assay: microscale thermophoresis
Format: binding
Settings: dye-labelled protein 20 nM

[1] = 50 mM Tris pH 7.4, 10 mM MgCl2, 150 mM NaCl, 0.05% Tween 20, 22 °C

T1 sequence (U9TZV5 entry or part of it): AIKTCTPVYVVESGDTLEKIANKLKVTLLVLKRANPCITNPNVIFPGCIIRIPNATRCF

Compound	Kd [1] [µM]	further results
CC(=O)N[C@H]1[C@H](O[C@H]2[C@H](O)[C@@H](NC(C)=O)C(O)O[C@@H]2CO)O[C@H](CO)[C@@H](O[C@@H]2O[C@H](CO)[C@@H](O[C@@H]3O[C@H](CO)[C@@H](O)[C@H](O)[C@H]3NC(C)=O)[C@H](O)[C@H]2NC(C)=O)[C@@H]1O (some centres unmarked) [CO4, chitotetraose]	37.1 ± 1.4	–
CC(=O)N[C@H]1[C@H](O[C@H]2[C@H](O)[C@@H](NC(C)=O)[C@H](O[C@H]3[C@H](O)[C@@H](NC(C)=O)C(O)O[C@@H]3CO)O[C@@H]2CO)O[C@H](CO)[C@@H](O[C@@H]2O[C@H](CO)[C@@H](O[C@@H]3O[C@H](CO)[C@@H](O)[C@H](O)[C@H]3NC(C)=O)[C@H](O)[C@H]2NC(C)=O)[C@@H]1O (some centres unmarked) [CO5]	59.4 ± 2.1	–
CC(=O)N[C@H]1[C@H](O[C@H]2[C@H](O)[C@@H](NC(C)=O)[C@H](O[C@H]3[C@H](O)[C@@H](NC(C)=O)[C@H](O[C@H]4[C@H](O)[C@@H](NC(C)=O)C(O)O[C@@H]4CO)O[C@@H]3CO)O[C@@H]2CO)O[C@H](CO)[C@@H](O[C@@H]2O[C@H](CO)[C@@H](O[C@@H]3O[C@H](CO)[C@@H](O[C@@H]4O[C@H](CO)[C@@H](O)[C@H](O)[C@H]4NC(C)=O)[C@H](O)[C@H]3NC(C)=O)[C@H](O)[C@H]2NC(C)=O)[C@@H]1O (some centres unmarked) [CO7, chitoheptaose]	8.8 ± 1.2	–
LCO-IV(C18:1)	–	Kd (25 mM sodium cacodylate pH 6.0, 1 mM MgCl2, 1 mM CaCl2, 250 mM sucrose, 0.175% Fos-choline-10, 0.5% ethanol, 22 °C, single binding event, read-out: K d): ~0.24 µM
LCO-IV(C18:1, S)	–	Kd (25 mM sodium cacodylate pH 6.0, 1 mM MgCl2, 1 mM CaCl2, 250 mM sucrose, 0.175% Fos-choline-10, 0.5% ethanol, 22 °C, first (high-affinity) of two binding events, read-out: K d): ~0.015 µM
